Reference: patent publication US9862680B2, “Peripherally substituted monocyclic beta-lactams” (University of Notre Dame du Lac, priority 2016, dated 2018)

Columns and labels:
[1] = test system: panel of Gram-positive and Gram-negative bacteria; assay: MIC determination; assay type: cell-based; details: same panel of Gram-positive and Gram-negative bacteria, all values
[2] = test system: panel of Gram-positive and Gram-negative bacteria; assay: Kirby-Bauer agar diffusion assays, results in words; assay type: cell-based
Method: (§1) Antibacterial activity of the compounds was determined by a modified Kirby-Bauer^27-28 agar-diffusion assay. Overnight cultures of test organisms were grown in LB broth for 18-24h and standard suspensions of […] were prepared in saline solution (0.9% NaCl) according to a 0.5 BaSO4 McFarland Standard. This standardized suspension (0.1 mL) was added to 34 mL of sterile, Mueller Hinton No. 2 agar tempered to 47-50° C. After gentle mixing, the inoculated agar media was poured into a sterile plastic petri dish (145 mm×20 mm) and allowed to solidify near a flame with the lid cracked for 30 min. Wells of 9.0 mm diameter were cut from the petri dish agar and filled with exactly 50 μL of the test sample solution. For studies using mixtures of compounds, both test compounds were diluted to equal concentrations and 50 μL of the mixed compound solution was added to the cut well. The petri dish was incubated at 37° C. for 18-24 h and the inhibition zone diameters were measured (mm) with an electronic caliper after 24-48 h.
(§2) All compound-containing solutions were prepared by first making a 20 mM solution of the compound in DMSO and then diluting that solution 10-fold with MeOH to give the final 2 mM solution used in the assay.
(§3) Plates were incubated after inoculation at 37° C. for 20 hours. Plates were photographed after 1 day. M. vaccae required a longer incubation time, 48 hours, and was photographed after 3 days.

[3] = test system: E. Coli DC0; assay: Agar diffusion assay (modified Kirby-Bauer); assay type: cell-based; details: 2 mM solution, 50 μL in 9.0 mm well, P unclear, V very unclear zone, * slightly misshapen zone
Method: as §1, §2, §3

[4] = test system: S. Aureus SG511; assay: Agar diffusion assay (modified Kirby-Bauer); assay type: cell-based; details: 2 mM solution, 50 μL in 9.0 mm well, P unclear, V very unclear zone, * slightly misshapen zone; for zone of inhibition at 2000 µM: Staphylococcus aureus, read-out: Zone of Growth Inhibition
Method: as §1, §2, §3

[5] = test system: B. Subtilis ATCC 6633; assay: Agar diffusion assay (modified Kirby-Bauer); assay type: cell-based; details: 2 mM solution, 50 μL in 9.0 mm well, P unclear, V very unclear zone, * slightly misshapen zone
Method: as §1, §2, §3

[6] = test system: B. Dolosa AU 0018; assay: Agar diffusion assay (modified Kirby-Bauer); assay type: cell-based; details: 2 mM solution, 50 μL in 9.0 mm well, P unclear, V very unclear zone, * slightly misshapen zone; for zone of inhibition at 2000 µM: Burkholderia dolosa, read-out: Zone of Growth Inhibition
Method: as §1, §2, §3

[7] = test system: E. Coli DC2; assay: Agar diffusion assay (modified Kirby-Bauer); assay type: cell-based
Method: as §1, §2, §3

[8] = test system: M. Luteus ATCC 10240; assay: Agar diffusion assay (modified Kirby-Bauer); assay type: cell-based; details: M. Luteus ATCC 10240, 2 mM solution, 50 μL in 9.0 mm well, P unclear, V very unclear zone, * slightly misshapen zone
Method: as §1, §2, §3

[9] = test system: P. Aeruginosa K799/61; assay: Agar diffusion assay (modified Kirby-Bauer); assay type: cell-based; details: for Zone of Growth Inhibition: P. Aeruginosa K799/61 (permeability mutant), 2 mM solution, 50 μL in 9.0 mm well, P unclear, V very unclear zone, * slightly misshapen zone
Method: as §1, §2, §3

[10] = test system: M. Vaccae IMET 10670; assay: Agar diffusion assay (modified Kirby-Bauer); assay type: cell-based; details: 2 mM solution, 50 μL in 9.0 mm well, 48 hours incubation, P unclear, V very unclear zone, * slightly misshapen zone
Method: as §1, §2, §3

[11] = test system: P. Aeruginosa K799/wt; assay: Agar diffusion assay (modified Kirby-Bauer); assay type: cell-based; details: P. Aeruginosa K799/wt (wild type), 2 mM solution, 50 μL in 9.0 mm well, P unclear, V very unclear zone, * slightly misshapen zone
Method: as §1, §2, §3

[12] = test system: A. Baumannii ATCC 17961; assay: Agar diffusion assay (modified Kirby-Bauer); assay type: cell-based; details: 2 mM solution, 50 μL in 9.0 mm well, P unclear, V very unclear zone, * slightly misshapen zone
Method: as §1, §2, §3

[13] = target: PAM 2035; assay: β-lactamase inhibition, Ki by enzyme kinetics; assay type: biochemical; details: PAM 2035, class C
[14] = test system: selected β-lactamase enzymes from classes A, B, C and D; assay: β-lactamase inhibitory activity, results in words; assay type: biochemical; details: C and D (Ambler classification)
Method: (§4) To the first row of a 2-mL deep 96-well block was added 1 mL of 50 mM sodium phosphate buffer at pH 7 with 0.1 mg/mL BSA (bovine serum albumin). To the first row was added an appropriate amount of a 10 mg/mL solution of the compound to be tested to make a 640 μM (4×) solution. Each of the other wells in the 96-well block were charged with 750 μL of the aforementioned buffer. The rows were then repeatedly diluted 1:3 so that the final concentrations of the individual 96-well plates would range in concentrations from 160 μM to 3 nM (8 dilutions). The master block was then used to add 50 pt to each corresponding well in the 96-well flat-bottom plate. An additional 50 of buffer was added to each well. Once the plates were prepared, 50 μL of the enzyme to be tested against were added in buffer to each well [KPC-2 (0.147 mg/mL), CTX-M-14 (0.102 mg/mL), […] (0.331 mg/mL), AmpC (0.699 mg/mL), SHV-12 (0.111 mg/mL), NDM-1 (0.110 mg/mL)]. The plates were incubated at rt for 10 min before 50 μL. of an appropriate indicator were added to each well and the optical density at 495 nm was measured over time. For each enzyme, other than NDM-1, nitrocefin was used. Nitrocefin (10 μM for SHV-12, 50 μM for the other enzymes), was appropriate because when cleaved by a β-lactamase, the color changes from yellow to red. For NDM-1, imipenem (10 μM) was the indicator of choice. Rather than observe the growing presence of optical density at 495 nm, as with nitrocefin, the disappearance of imipenem was monitored. The inhibition curves were monitored and used to perform enzyme kinetics according to Waley to determine the Ki (μM) of each compound against the β-lactamases screened.

[15] = target: T1, Oxa-48 (Klebsiella pneumoniae, UniProt Q6XEC0); assay: β-lactamase inhibition, Ki by enzyme kinetics (nitrocefin); assay type: biochemical; details: Oxa-48, class D
T1 construct: purchased Emerald Bioscience
T1 sequence (Q6XEC0 23-265 limits assumed): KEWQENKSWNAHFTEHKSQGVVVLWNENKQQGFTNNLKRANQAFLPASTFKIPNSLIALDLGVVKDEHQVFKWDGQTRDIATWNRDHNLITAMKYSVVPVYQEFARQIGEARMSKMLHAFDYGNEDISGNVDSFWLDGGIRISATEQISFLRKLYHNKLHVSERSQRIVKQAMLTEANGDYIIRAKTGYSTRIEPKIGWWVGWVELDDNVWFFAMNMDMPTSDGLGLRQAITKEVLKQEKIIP
Method: (§5) The enzymes KPC-2, Oxa-48, AmpC and NDM-1 were purchased from Emerald Bioscience and the enzymes CTX-14 and SHV-12 were expressed and purified from E. coli at Rempex pharmaceutical (San Diego, Calif.).
as §4

[16] = target: T2, CTX-M-14 (Escherichia coli, UniProt Q9L5C7); assay: as above; assay type: biochemical; details: CTX-M-14, class A
T2 construct: host or cells: E. coli
T2 sequence (Q9L5C7 entry or part of it): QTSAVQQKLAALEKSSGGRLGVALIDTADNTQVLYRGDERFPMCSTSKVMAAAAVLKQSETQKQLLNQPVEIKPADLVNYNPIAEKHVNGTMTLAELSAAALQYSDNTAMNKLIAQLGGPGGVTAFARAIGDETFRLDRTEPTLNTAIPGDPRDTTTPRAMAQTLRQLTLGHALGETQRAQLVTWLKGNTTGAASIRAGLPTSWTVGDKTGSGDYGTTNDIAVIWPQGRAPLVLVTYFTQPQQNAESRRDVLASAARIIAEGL
Method: as §5, §4

[17] = target: T3, KPC-2 (Klebsiella pneumoniae, UniProt Q9F663); assay: as above; assay type: biochemical; details: KPC-2, class A
T3 construct: purchased Emerald Bioscience
T3 sequence (Q9F663 25-293 limits assumed): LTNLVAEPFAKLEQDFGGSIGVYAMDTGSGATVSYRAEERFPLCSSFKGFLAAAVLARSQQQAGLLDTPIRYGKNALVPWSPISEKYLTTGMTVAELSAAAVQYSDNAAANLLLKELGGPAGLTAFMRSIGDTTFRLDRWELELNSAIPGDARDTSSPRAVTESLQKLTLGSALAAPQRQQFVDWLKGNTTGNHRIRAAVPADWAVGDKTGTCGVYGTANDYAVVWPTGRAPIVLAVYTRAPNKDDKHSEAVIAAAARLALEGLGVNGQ
Method: as §5, §4

[18] = target: T4, SHV-12 (Klebsiella pneumoniae, UniProt P0AD64, E235K/G234S/L31Q); assay: as above; assay type: biochemical; details: SHV-12, class A
T4 construct: host or cells: E. coli
T4 sequence (P0AD64 22-286 L31Q/G234S/E235K): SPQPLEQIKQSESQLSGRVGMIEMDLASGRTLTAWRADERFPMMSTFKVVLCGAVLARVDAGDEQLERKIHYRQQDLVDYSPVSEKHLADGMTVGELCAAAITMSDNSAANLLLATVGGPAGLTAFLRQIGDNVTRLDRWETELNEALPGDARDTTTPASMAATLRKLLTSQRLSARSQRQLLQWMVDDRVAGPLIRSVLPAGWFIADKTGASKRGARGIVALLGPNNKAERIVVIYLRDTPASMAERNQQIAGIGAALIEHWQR
Method: as §5, §4

[19] = target: AmpC; assay: as above; assay type: biochemical; details: class C
Method: as §5, §4

[20] = target: T5, NDM-1 (Klebsiella pneumoniae, UniProt C7C422); assay: β-lactamase inhibition, Ki by enzyme kinetics (imipenem); assay type: biochemical; details: NDM-1, class B
T5 construct: purchased Emerald Bioscience
T5 sequence (C7C422 29-270 limits assumed): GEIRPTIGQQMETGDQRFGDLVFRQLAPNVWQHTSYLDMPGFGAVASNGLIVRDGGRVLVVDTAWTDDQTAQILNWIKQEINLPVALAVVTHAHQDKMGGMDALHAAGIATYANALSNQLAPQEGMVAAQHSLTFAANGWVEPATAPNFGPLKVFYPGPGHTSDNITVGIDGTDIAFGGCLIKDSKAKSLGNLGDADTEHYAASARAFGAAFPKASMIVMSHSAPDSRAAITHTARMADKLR
Method: as §5, §4

[21] = target: VIM-1 (Pseudomonas aeruginosa, UniProt A0A0F7KYQ8); assay: β-lactamase inhibition, Ki by enzyme kinetics; assay type: biochemical; details: VIM-1, class B
[22] = Pseudomonas aeruginosa, read-out: Zone of Growth Inhibition
[23] = E. Coli DC2, 2 mM solution, 50 μL in 9.0 mm well, P unclear, V very unclear zone, * slightly misshapen zone

Row | Structure (SMILES) | MIC [1] | zone of inhibition at 2000 µM [4] | Zone of Growth Inhibition [5] | zone of inhibition at 2000 µM [6] | Zone of Growth Inhibition [8] | Zone of Growth Inhibition [3] | Zone of Growth Inhibition [12] | Zone of Growth Inhibition [9] | Zone of Growth Inhibition [11] | Ki [13] | β-lactamase inhibitory activity, selectivity [14] | Zone of Growth Inhibition [4] | Zone of Growth Inhibition [6] | Zone of Growth Inhibition [7, 23] | Ki [15] | Ki [16] | Ki [17] | Ki [18] | Ki [19] | Ki [20] | also measured
1 | CO/N=C(\C(=O)N[C@@H]1C(=O)N(S(=O)(=O)[O-])[C@H]1CSCCN)c1cnc(N)s1.[K+] [Compound 44] | > 50 µM | 0 mm | 16V | 0 mm | 14 s |  |  |  |  |  |  |  |  |  |  |  |  |  |  |  | antibacterial activity ([2]; against B. subtilis, M. luteus, A. baumannii and the permeability mutant strains of P. aeruginosa and E. coli): moderately active; zone of inhibition at 2000 µM ([3]; Escherichia coli, read-out: Zone of Growth Inhibition): 23 mm; antibacterial activity ([7]; against E. coli DC2, called wild type in the text): active; zone of inhibition at 2000 µM [9, 22]: 14 mm; zone of inhibition at 2000 µM ([10]; Mycolicibacterium vaccae, read-out: Zone of Growth Inhibition): 0 mm; zone of inhibition at 2000 µM [11, 22]: 0 mm
2 | CC(C)(C)OC(=O)NCCSC[C@@H]1NC(=O)[C@H]1NC(=O)OCC1c2ccccc2-c2ccccc21 [Compound 41] | > 50 µM | 0 mm | 13P | 0 mm |  | 15V | 13P | 16P | 15P |  |  |  |  |  |  |  |  |  |  |  | antibacterial activity ([2]; E. coli strains DC0 and DC2): only active against the permeability mutant DC0; antibacterial activity ([2]; P. aeruginosa, both the wild type (K799/0 wt) and the permeability mutant (K799/61)): showed activity; antibacterial activity ([2]; against B. subtilis and M. vaccae, A. baumannii, P. aeruginosa and E. coli): moderate activity; zone of inhibition at 2000 µM ([7]; Escherichia coli, E. Coli DC2, 2 mM solution, 50 μL in 9.0 mm well, P unclear, V very unclear zone, * slightly misshapen zone, read-out: Zone of Growth Inhibition): 0 mm; zone of inhibition at 2000 µM ([8]; Micrococcus luteus, ATCC10240, read-out: Zone of Growth Inhibition): 0 mm; Zone of Growth Inhibition [10]: 17V
3 | O=C1CC(CBr)N1OS(=O)(=O)c1cccc2ccccc12 (centres unmarked) [Compound 61b] |  |  | 12 mm |  |  | 0 mm | 0 mm | 0 mm | 0 mm | > 160 µM | inhibited enzymes from both classes A and D | 14P | 0 mm | 0 mm | 4.67 µM | > 160 µM | > 160 µM | 0.198 µM | > 160 µM | > 160 µM | 
4 | O=C1CC(CBr)N1OS(=O)(=O)/C=C/c1ccccc1 (centres unmarked) [Compound 61a] |  |  | 15* mm |  | 17 mm | 0 mm | 0 mm | 0 mm | 0 mm | > 160 µM | inhibited enzymes from both classes A and D |  | 0 mm | 0 mm | 1.48 µM | 0.149 µM | 19.3 µM | 0.779 µM | > 160 µM | > 160 µM | Ki [21]: > 160 µM
5 | O=C1CC(CBr)N1OS(=O)(=O)c1ccc2ccccc2c1 (centres unmarked) [Compound 61c] |  |  |  |  |  | 0 mm | 0 mm | 0 mm | 0 mm | > 160 µM | active only against the class A enzyme SHV-12 | 15 mm | 0 mm | 0 mm | > 160 µM | > 160 µM | > 160 µM | 0.19 µM | > 160 µM | > 160 µM | Ki [21]: > 160 µM
